# Results reported in patent publication US20070149456A1, “Epithelial sodium channel inhibiting agents and uses therefor” (University of Pittsburgh, priority 2005, published 2007).
# Where “and” joins values, the source holds several entries; their conditions need not be identical. Equal entries are not always repeated. Entries after “also recorded” stand apart in the source; their conditions may differ. Where two headings read alike, the source gives them in different places.
# Biological target: T1, endogenous ENaC in HAE cells (Homo sapiens, UniProt P37088+P51168+P51170)
# T1 construct: endogenous in cells; host or cells: primary human airway (bronchial) epithelial cells from transplant or donor lungs
# Test: Amiloride-sensitive short circuit current in primary human airway epithelial (HAE) cell monolayers, Ussing chamber
# Type: cell-based
# Conditions: for Ki: HBE cells; for inhibition of amiloride sensitive short circuit currents: HAE, increasing concentrations of peptide
# From the text: Primary Cultures of HAE Cells—HAE cells were obtained from excess pathological tissue remaining after lung transplantation or from organ donor lungs deemed not suitable for transplantation under a protocol approved by the University of Pittsburgh […] Review Board. All cells were isolated from second through sixth generation bronchi and grown on permeable Transwell supports (Coming Inc.) as previously described (Devor, D. C., and Pilewski, J. M. (1999), UTP inhibits Na^+ absorption in wild-type and DeltaF508 CFTR-expressing human bronchial epithelia, Am. J. Physiol. 276, C827-C837 31. ).
# Short Circuit Current Measurements—Cell culture inserts were mounted in modified Ussing chambers (Harvard Apparatus, Holliston, Mass.), and the monolayers were continuously short-circuited with a voltage/current clamp system (Physiologic Instruments, San Diego, Calif.). A 2-mV bipolar pulse was applied periodically to measure the resistance of the monolayer. As previously described by Bridges et al. (Bridges, R. J., Newton, B. B., Pilewski, J. M., Devor, D. C., Poll, C. T., and Hall, R. L. (2001), Na+ transport in normal and CF human bronchial epithelial cells is inhibited by BAY 39-9437, Am. J. Physiol. 281, L16-L23 32, Na^+ transport in normal and CF human bronchial epithelial cells is inhibited by BAY 39-9437), the bath solution contained (in mM) 120 NaCl, 25 NaHCO3, 3.3 KH2PO4, 0.8 K2HPO4, 1.2 MgCl2, 1.2 CaCl2, and 10 glucose. The pH of this solution was 7.4 when gassed with a mixture of 95% O2-5% CO2 at 37° C.
# Primary cultures of HAE cells grown on permeable membrane supports and mounted in modified Ussing chambers were continuously short-circuited by a voltage clamp amplifier (Physiologic Instruments, San Diego, Calif.). Monolayers were exposed to increasing concentrations of either the γ-peptide (closed circles) or a scrambled peptide (open circles). […] (n=8-9).
# Vectors and Cell Culture—Wild-type, C-terminal and double epitope tagged mouse ENaC subunit cDNAs were previously described (Hughey, R. P., Mueller, G. M., Bruns, J. B., Kinlough, C. L., Poland, P. A., Harkleroad, K. L., Carattino, M. D., and Kleyman, T. R. (2003) J Biol Chem 278, 37073-37082 and Ahn, Y. J., Brooker, D. R., Kosari, F., Harte, B. J., Li, J., Mackler, S. A., and Kleyman, T. R. (1999), Cloning and functional expression of the mouse epithelial sodium channel, Am J Physiol 277, F121-129). The γ subunit mutations were generated in pcDNA3.1 (+) using a standard two-step PCR method. A cDNA clone (IMAGE #: 3600399) encoding full length mouse prostasin was obtained from Open Biosystems (Huntsville, Ala.) and sub-cloned into pcDNA3.1 (+) (Invitrogen, Carlsbad, Calif.). MDCK type 1 cells were a gift from Barry M. Gumbiner (Memorial Sloan-Kettering Cancer Center, New York) and were cultured as previously described (Lavelle, J. P., Negrete, H. O., Poland, P. A., Kinlough, C. L., Meyers, S. D., Hughey, R. P., and Zeidel, M. L. (1997), Low permeabilities of MDCK cell monolayers: a model barrier epithelium, Am J Physiol 273, F67-75). CCD (mpkCCDc14) cells were a gift from Alain Vandewalle (Institut National de la Santéet de la Recherche Médicale, Paris, France) and were cultured as previously described (Bens, M., Vallet, V., Cluzeaud, F., Pascual-Letallec, L., Kahn, A., Rafestin-Oblin, M. E., Rossier, B. C., and Vandewalle, A. (1999) J Am Soc Nephrol 10, 923-934). HAE cells were isolated and cultured as described (Devor, D. C., Bridges, R. J., and Pilewski, J. M. (2000), Pharmacological modulation of ion transport across wild-type and DeltaF508 CFTR-expressing human bronchial epithelia, Am J Physiol Cell Physiol 279, C461-479). […]
# T1 sequence (P37088 1-178): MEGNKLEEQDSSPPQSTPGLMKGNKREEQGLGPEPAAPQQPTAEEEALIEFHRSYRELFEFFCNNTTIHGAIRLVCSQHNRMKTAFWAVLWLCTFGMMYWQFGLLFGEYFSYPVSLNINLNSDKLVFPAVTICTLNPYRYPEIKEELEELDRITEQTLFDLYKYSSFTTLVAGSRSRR
# T1 sequence (P37088 205-669): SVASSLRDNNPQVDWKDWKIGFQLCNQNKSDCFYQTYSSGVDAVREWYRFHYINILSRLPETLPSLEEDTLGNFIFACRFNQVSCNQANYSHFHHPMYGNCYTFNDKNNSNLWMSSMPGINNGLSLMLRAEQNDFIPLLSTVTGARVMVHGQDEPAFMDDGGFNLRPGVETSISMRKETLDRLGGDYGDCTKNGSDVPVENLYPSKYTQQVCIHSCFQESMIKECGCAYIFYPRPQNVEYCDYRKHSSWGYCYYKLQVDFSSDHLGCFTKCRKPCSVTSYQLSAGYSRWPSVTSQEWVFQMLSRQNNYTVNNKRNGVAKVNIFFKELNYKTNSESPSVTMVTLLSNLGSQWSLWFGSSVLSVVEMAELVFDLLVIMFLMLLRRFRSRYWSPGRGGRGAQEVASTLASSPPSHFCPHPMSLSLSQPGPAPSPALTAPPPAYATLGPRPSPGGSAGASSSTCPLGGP
# T1 sequence (P51168 whole entry): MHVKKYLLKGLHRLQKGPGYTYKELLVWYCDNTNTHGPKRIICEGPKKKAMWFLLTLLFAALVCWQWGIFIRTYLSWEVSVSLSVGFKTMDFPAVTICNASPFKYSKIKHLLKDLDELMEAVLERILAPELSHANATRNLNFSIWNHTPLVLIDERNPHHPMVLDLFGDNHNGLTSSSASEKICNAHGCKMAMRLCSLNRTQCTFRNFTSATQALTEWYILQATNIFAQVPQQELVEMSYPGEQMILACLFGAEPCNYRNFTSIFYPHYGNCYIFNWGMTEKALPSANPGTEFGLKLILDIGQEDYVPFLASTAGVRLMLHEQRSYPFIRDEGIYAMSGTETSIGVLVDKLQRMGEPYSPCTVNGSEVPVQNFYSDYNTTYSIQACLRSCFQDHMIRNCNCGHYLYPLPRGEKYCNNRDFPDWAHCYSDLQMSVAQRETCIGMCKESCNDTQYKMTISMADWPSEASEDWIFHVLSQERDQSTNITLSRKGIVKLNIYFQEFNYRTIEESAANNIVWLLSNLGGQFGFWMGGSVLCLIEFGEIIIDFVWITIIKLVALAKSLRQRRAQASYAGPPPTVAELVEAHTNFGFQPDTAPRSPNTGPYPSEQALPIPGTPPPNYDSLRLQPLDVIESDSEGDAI
# T1 sequence (P51170 1-138): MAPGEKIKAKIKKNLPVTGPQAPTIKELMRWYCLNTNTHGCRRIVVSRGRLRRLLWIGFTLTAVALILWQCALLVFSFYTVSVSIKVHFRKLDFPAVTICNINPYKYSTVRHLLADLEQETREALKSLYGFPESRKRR
# T1 sequence (P51170 182-649): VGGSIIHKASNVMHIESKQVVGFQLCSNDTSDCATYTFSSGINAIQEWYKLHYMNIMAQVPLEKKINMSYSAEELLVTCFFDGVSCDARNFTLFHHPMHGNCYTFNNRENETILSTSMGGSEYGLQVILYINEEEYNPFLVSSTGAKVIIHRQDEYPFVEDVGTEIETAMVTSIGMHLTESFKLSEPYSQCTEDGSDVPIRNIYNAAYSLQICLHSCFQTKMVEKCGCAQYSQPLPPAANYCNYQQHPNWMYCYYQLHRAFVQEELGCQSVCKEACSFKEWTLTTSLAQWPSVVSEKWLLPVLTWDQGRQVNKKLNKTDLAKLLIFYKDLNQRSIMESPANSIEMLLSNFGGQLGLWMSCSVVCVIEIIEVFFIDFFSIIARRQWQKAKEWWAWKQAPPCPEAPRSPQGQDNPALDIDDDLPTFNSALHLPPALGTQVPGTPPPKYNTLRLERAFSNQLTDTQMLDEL
Substance,"Ki (stated jointly for HBE or mpkCCDc14, read-out: Ki, block of endogenous ENaC activity)","IC50 (HAE primary cultures, nonlinear curve fitting, read-out: IC50, inhibition of short circuit currents)",inhibition of amiloride sensitive short circuit currents (listed as γ cleavage product),inhibition of amiloride sensitive short circuit currents (listed as γ-peptide),"Ki (stated jointly for HBE and mpkCCDc14, read-out: apparent Ki, inhibition of endogenous ENaC activity)"
Ac-DLRGALPHPLQRLRTPPPPNPARSAR-NH2 [α-26],50000 to 100000 nM,,,,
Ac-EAGSMRSTWEGTPPRFLNLIPLLVFNENEKGKARDFFTGRKRK-NH2 [γ-43],,2000 nM and 2000 to 3000 nM,inhibited in a dose dependent manner,potent inhibitor; also recorded: strong inhibition,~2000 nM
